The record followed here is US11021481B2, “Substituted isoindolin-1-ones and 2,3-dihydro-1h-pyrrolo[3,4-c]pyridin-1-ones as HPK1 antagonists” (Nimbus Saturn, Inc., priority 2019, dated 2021).

Where only a bound is given, the exact number is not on record here.

Chain of HPK1 (Q92918 whole entry): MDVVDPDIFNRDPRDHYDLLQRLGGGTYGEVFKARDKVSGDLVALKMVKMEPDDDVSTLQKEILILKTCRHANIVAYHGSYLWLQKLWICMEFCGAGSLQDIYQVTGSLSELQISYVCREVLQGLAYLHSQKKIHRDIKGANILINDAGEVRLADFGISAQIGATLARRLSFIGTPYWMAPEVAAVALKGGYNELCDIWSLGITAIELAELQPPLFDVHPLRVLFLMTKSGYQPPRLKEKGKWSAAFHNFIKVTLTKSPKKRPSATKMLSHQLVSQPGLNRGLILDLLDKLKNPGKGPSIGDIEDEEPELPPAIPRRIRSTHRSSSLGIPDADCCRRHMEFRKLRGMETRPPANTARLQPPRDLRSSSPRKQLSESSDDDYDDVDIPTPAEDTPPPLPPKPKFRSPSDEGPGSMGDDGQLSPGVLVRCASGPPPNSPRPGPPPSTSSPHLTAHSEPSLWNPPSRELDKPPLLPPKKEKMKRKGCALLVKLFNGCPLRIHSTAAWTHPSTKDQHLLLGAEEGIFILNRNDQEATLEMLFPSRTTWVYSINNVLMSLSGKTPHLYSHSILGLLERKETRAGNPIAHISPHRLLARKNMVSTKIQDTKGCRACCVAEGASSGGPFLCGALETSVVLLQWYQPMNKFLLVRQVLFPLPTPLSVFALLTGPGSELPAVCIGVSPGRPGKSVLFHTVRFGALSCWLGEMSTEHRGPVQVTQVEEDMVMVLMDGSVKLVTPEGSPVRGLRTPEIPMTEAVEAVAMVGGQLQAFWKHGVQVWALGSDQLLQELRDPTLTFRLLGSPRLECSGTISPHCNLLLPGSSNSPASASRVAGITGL

The test has as its target HPK1 (Homo sapiens (Human), UniProt Q92918). Kind of test: HPK1 biochemical enzyme assay (microfluidic mobility shift assay). To be noted: 1.5 nM HPK1, ATP 1 mM final, 30 min preincubation, 60 min at RT, Caliper EZ Reader; read-out: HPK1 1000UMATP caliper IC50. The procedure, abridged:
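Ten-point compound titrations (top 3 μM final) preincubated 30 min with HPK1 and substrate, then reaction started with 1 mM ATP and 1 μM substrate, 5 mM MgCl2. After 60 min at RT, reaction terminated and product measured by microfluidic mobility shift.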
Usually IC50 stands for the concentration needed to halve the response being measured. Turning to `Cc1ccn2c(-c3ccc(Nc4ccc(N5CCOC(CN(C)C)C5)cn4)c4c3CNC4=O)cnc2c1F` (stereo in doubt) [I-614, (R)-7-((5-(2-((dimethylamino)-methyl)mor-pholino)pyridin-2-yl)amino)-4-(8-fluoro-7-methylimidazo [1,2-a]pyridin-3-yl)isoindolin-1-one], the IC50 was below 100 nM.

Turning to `CN1CCN(CC2(O)CCN(c3ccc(Nc4cnc(-c5ccnc6c5ccn6C)c5c4C(=O)NC5)nc3)CC2)CC1` [I-401, 7-((5-(4-hydroxy-4-((4-methylpiperazin-1-yl)methyl)piper-idin-1-yl)pyridin-2-yl)amino)-4-(1-methyl-1H-pyrrolo[2,3-b]pyridin-4-yl)-2,3-dihydro-1H-pyrrolo[3,4-c]pyridin-1-one], the concentration for half-maximal inhibition (IC50) is below 100 nM.

Take `Cn1ccc2c(-c3ncc(Nc4ccc(N5CC[C@H](F)[C@@H](O)C5)cn4)c4c3CNC4=O)ccnc21` [I-417, 7-((5-((3S,4S)-4-fluoro-3-hydroxy-piperidin-1-yl)pyridin-2-yl)amino)-4-(1-methyl-1H-pyrrolo[2,3-b]pyridin-4-yl)-2,3-dihydro-1H-pyrrolo[3,4-c]pyridin-1-one]: the IC50 is below 100 nM.

For `O=C1NCc2c(-c3cnc4cc(F)ccn34)ccc(Nc3ccc(N4CCO[C@@H](CO)C4)cn3)c21` [I-450, 4-(7-fluoroimidazo [1,2-a]pyridin-3-yl)-7-[[5-[(2R)-2-(hydroxymeth-yl)morpholin-4-yl]-2-pyridyl]amino] isoindolin-1-one], the IC50 is below 100 nM.

Consider `Cc1cnc2[nH]ccc2c1-c1ccc(Nc2ccc(N3CCN(C)CC3)cn2)c2c1CNC2=O` [I-78, 7-[[5-(4-methylpiperazin-1-yl)-2-pyridyl]amino]-4-(5-methyl-1H-pyrrolo[2,3-b]pyridin-4-yl)isoindolin-1-one], for which the IC50 lay within 100 to 1000 nM.

Take `CC(C)(O)[C@@H]1CN(c2ccc(Nc3cnc(-c4cnc5c(C(F)F)cccn45)c4c3C(=O)NC4)nc2)CCO1` [I-475, 4-[8-(difluoromethyl)-imidazo[1,2-a]pyridin-3-yl]-7-[[5-[(2S)-2-(1-hydroxy-1-methyl-ethyl)morpholin-4-yl]-2-pyridyl]amino]-2,3-dihydropyrrolo [3,4-c]pyridin-1-one]: the half-maximal inhibitory concentration (IC50) was below 100 nM.

For the compound `O=C1NCc2c(-c3cnc4cc(F)ccn34)ccc(Nc3ccc(N4CCC[C@@](O)(CN5CCOCC5)C4)cn3)c21` [I-656, (R)-4-(7-fluoroimidazo [1,2-a]pyridin-3-yl)-7-((5-(3-hydroxy-3-(morpholinomethyl)piperidin-1-yl)pyridin-2-yl)amino)isoin-dolin-1-one], the concentration for half-maximal inhibition (IC50) was below 100 nM.

Regarding `Cc1ccc2c(-c3ncc(Nc4ccc(N5CCN(C)CC5)cn4)c4c3CNC4=O)c[nH]c2c1` [I-8, 4-(6-methyl-1H-indol-3-yl)-7-[[5-(4-methylpiperazin-1-yl)-2-pyridyl]amino]-2,3-dihydropyrrolo [3,4-c]pyridin-1-one], the 50% inhibitory concentration (IC50) fell in the range of 100 to 1000 nM.

In the case of `CC(C)(O)[C@@H]1CN(c2ccc(Nc3cnc(-c4cnc5c(F)cccn45)c4c3C(=O)NC4)nc2)CCO1` [I-483, 4-(8-fluoroimidazo [1,2-a]pyridin-3-yl)-7-[[5-[(2S)-2-(1-hydroxy-1-methyl-ethyl)morpholin-4-yl]-2-pyridyl]amino]-2,3-dihydropyrrolo [3,4-c]pyridin-1-one], the half-maximal inhibitory concentration (IC50) was below 100 nM.

Regarding `CN1CCN(c2ccc(Nc3cnc(-c4c[nH]c5ccccc45)c4c3C(=O)NC4)nc2)CC1` [I-2, 4-(1H-indol-3-yl)-7-[[5-(4-methylpiperazin-1-yl)-2-pyridyl]amino]-2,3-dihydropyrrolo [3,4-c]pyridin-1-one], the IC50 lay in the range of 100 to 1000 nM.

For the compound `Cn1ccc2c(-c3ncc(Nc4cccc(N5C[C@H](CN6CCC6)CCC5=O)n4)c4c3CNC4=O)ccnc21` [I-689, (S)-7-((6-(5-(azetidin-1-ylmethyl)-2-oxopiperidin-1-yl)pyridin-2-yl)amino)-4-(1-methyl-1H-pyrrolo[2,3-b]pyridin-4-yl)-2,3-dihydro-1H-pyrrolo[3,4-c]pyridin-1-one], the concentration for half-maximal inhibition (IC50) lay within 100 to 1000 nM.

`Cc1cccc2c(-c3ncc(Nc4ccc(N5CCN(C)CC5)cn4)c4c3CNC4=O)c[nH]c12` [I-5, 4-(7-methyl-1H-indol-3-yl)-7-[[5-(4-methylpiperazin-1-yl)-2-pyridyl]amino]-2,3-dihydropyrrolo [3,4-c]pyridin-1-one]: the IC50 is 100 to 1000 nM.

Regarding `CN(C)Cc1nc(Nc2ccc(-c3cnc4cc(F)ccn34)c3c2C(=O)NC3)ccc1N1CCOCC1` [I-693, 7-((6-((dimethylamino)-methyl)-5-morpholino-pyridin-2-yl)amino)-4-(7-fluoroimidazo [1,2-a]pyridin-3-yl)isoindolin-1-one], the IC50 is below 100 nM.

Consider `C[C@H]1COCCN1c1ccc(Nc2ccc(-c3cnc4cc(F)ccn34)c3c2C(=O)NC3)nc1CN(C)C` [I-531, 7-[[6-[(dimethylamino)-methyl]-5-[(3S)-3-methylmorpho-lin-4-yl]-2-pyridyl]amino] 4-(7-fluoroimidazo [1,2-a]pyridin-3-yl)isoindolin-1-one], for which the IC50 is below 100 nM.

As for `O=C1NCc2c(-c3ccnc4c3ccn4C(F)F)ncc(Nc3ccc(N4CCC(O)CC4)cn3)c21` [I-200, 4-[1-(difluorometh-yl)pyrrolo[2,3-b]pyridin-4-yl]-7-[[5-(4-hydroxy-1-piperidyl)-2-pyridyl]-amino]-2,3-dihxdropyrrolo [3,4-c]pyridin-1-one], the half-maximal inhibitory concentration (IC50) is below 100 nM.

As to `O=C1NCc2c(-c3cnn4ccccc34)ccc(Nc3ccc(N4CCNCC4)cn3)c21` [I-90, 7-[(5-piperazin-1-yl-2-pyridyl)amino]-4-pyrazolo[1,5-a]pyridin-3-yl-isoindolin-1-one], the IC50 is below 100 nM.

Turning to `O=C1NCc2c(-c3cnc4cc(F)ccn34)ccc(Nc3ccc(N4CCC[C@H](O)C4)cn3)c21` [I-175, 4-(7-fluoroimidazo [1,2-a]pyridin-3-yl)-7-[[5-[(3S)-3-hydroxy-1-piperidyl]-2-pyridyl]amino] isoindolin-1-one], the IC50 was below 100 nM.

Take `O=C1NCc2c(-c3cnc4c(F)cccn34)ncc(Nc3ccc(N4CC[C@@H](F)[C@H](O)C4)cn3)c21` [I-652, 7-((5-((3R,4R)-4-fluoro-3-hydroxypiperidin-1-yl)pyridin-2-yl)amino)-4-(8-fluoroimidazo [1,2-a]pyridin-3-yl)-2,3-dihydro-1H-pyrrolo[3,4-c]pyridin-1-one]: the IC50 was below 100 nM.

With `CN(Cc1nc(Nc2ccc(-c3cnc4cc(F)ccn34)c3c2C(=O)NC3)ccc1[C@@H]1CCOC1)C1CC1` [I-738], the IC50 is below 100 nM.

Turning to `O=C1NCc2c(-c3ccnc4cnccc34)ncc(Nc3ccc(N4CCC(O)CC4)cn3)c21` [I-592, 7-((5-(4-hydroxypiperidin-1-yl)pyridin-2-yl)amino)-4-(1,7-naphthyridin-4-yl)-2,3-dihydro-1H-pyrrolo[3,4-c]pyridin-1-one], the concentration for half-maximal inhibition (IC50) was above 1000 nM.

In the case of `Cn1ncc(Nc2ccc(-c3cnc4cc(F)ccn34)c3c2C(=O)NC3)c1C1CCOCC1` [I-396], the IC50 was above 1000 nM.

Consider `CN1CCN(CC2(O)CCCN(c3ccc(Nc4ccc(-c5cnc6cc(F)ccn56)c5c4C(=O)NC5)nc3)C2)CC1` (stereo not shown) [I-388, 4-(7-fluoroimidazo [1,2-a]pyridin-3-yl)-7-((5-(3-hydroxy-3-((4-methylpiperazin-1-yl)methyl)piper-idin-1-yl)pyridin-2-yl)amino)isoin-dolin-1-one], for which the IC50 is below 100 nM.

As to `Cn1ccc2c(-c3ncc(Nc4ccc(N5CCO[C@@H](C(C)(C)O)C5)cn4)c4c3CNC4=O)ccnc21` [I-459], the IC50 was below 100 nM.

With `Cc1cccc2c(-c3ccc(Nc4ccc([C@@H]5CCOC5)c(CN(C)C)n4)c4c3CNC4=O)cnn12` [I-709, (S)-7-((6-((dimethylamino)-methyl)-5-(tetrahydrofuran-3-yl)pyridin-2-yl)amino)-4-(7-methylpyrazolo[1,5-a]pyridin-3-yl)isoindolin-1-one], the 50% inhibitory concentration (IC50) is below 100 nM.

With `Cc1nccn2c(-c3ccc(Nc4ccc(N5CCC(O)CC5)cn4)c4c3CNC4=O)cnc12` [I-158, 7-[[5-(4-hydroxy-1-piperidyl)-2-pyridyl]amino]-4-(8-methylimidazo [1,2-a]pyrazin-3-yl)isoindolin-1-one], the IC50 is below 100 nM.

Regarding `O=C1NCc2c(-c3cnc4cc(F)ccn34)ccc(Nc3ccc(N4CCC[C@@]5(CNCCO5)C4)cn3)c21` [I-507, (R)-7-((5-(1-oxa-4,8-diazaspiro[5.5]undecan-8-yl)pyridin-2-yl)amino)-4-(7-fluoroimidazo [1,2-a]pyridin-3-yl)isoindolin-1-one], the 50% inhibitory concentration (IC50) was below 100 nM.

With `CN(C)Cc1nc(Nc2ccc(-c3cnc4cc(F)ccn34)c3c2C(=O)NC3)ccc1C1(O)CCOCC1` [I-719, 7-((6-((dimethylamino)-methyl)-5-(4-hydroxytetra-hydro-2H-pyran-4-yl)pyridin-2-yl)amino)-4-(7-fluoroimidazo [1,2-a]pyridin-3-yl)isoindolin-1-one], the half-maximal inhibitory concentration (IC50) was below 100 nM.

`O=C1NCc2c(-c3cnc4cnccn34)ccc(Nc3ccc(N4CCCOCC4)cn3)c21` [I-300, 7-((5-(1,4-oxazepan-4-yl)pyridin-2-yl)amino)-4-(imidazo[1,2-a]pyrazin-3-yl)isoindolin-1-one]: the half-maximal inhibitory concentration (IC50) was below 100 nM.

On to `O=C1NCc2c(-c3cnc4cc(F)ccn34)ccc(Nc3ccc(N4CCO[C@H](Cn5ccnc5)C4)cn3)c21` [I-512, 4-(7-fluoroimidazo [1,2-a]pyridin-3-yl)-7-[[5-[(2S)-2-(imidazol-1-ylmethyl)mor-pholin-4-yl]-2-pyridyl]amino] isoindolin-1-one], for which the IC50 was below 100 nM.

On to `CN1CCN(c2ccc(Nc3ccc(-c4ccn5ccnc5c4)c4c3C(=O)NC4)nc2)CC1` [I-35, 4-imidazol[1,2-a]pyridin-7-yl-7-[[5-(4-methylpiperazin-1-yl)-2-pyridyl]amino] isoindolin-1-one], for which the half-inhibitory concentration (IC50) lay within 100 to 1000 nM.

For the compound `O=C1NCc2c(-c3cnc4cnccn34)ccc(Nc3ccc(N4CCC[C@@H](O)CC4)cn3)c21` [I-329, (R)-7-((5-(4-hydroxyaze-pan-1-yl)pyridin-2-yl)amino)-4-(imidazol[1,2-a]pyrazin-3-yl)isoindolin-1-one], the IC50 was below 100 nM.
